From US9688710B2, “Inhibitors of sodium glucose cotransporter 1” (LEXICON PHARMACEUTICALS, INC., priority 2012, dated 2017)

Key:
[1] = target: Human sodium/glucose co-transporter type 2 (SGLT2) (Homo sapiens (Human), UniProt P31639); experiment: In vitro human SGLT2 inhibition assay (14C-AMG uptake); format: cell-based; details: HEK293 cells expressing human HA-SGLT2, 14C-AMG uptake
Procedure, shortened: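 Uptake of 14C-AMG (100 nCi) was followed in a stable HEK293 HA-SGLT2 line over 1-2 h at 37 °C with or without compound. Buffer: 140 mM NaCl, 10 mM HEPES, 5 mM Tris, 1 mg/mL BSA, pH 7.3. Readout was scintillation counting after washing.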

[2] = target: Human sodium/glucose co-transporter type 1 (SGLT1) (Homo sapiens (Human), UniProt P13866); experiment: In vitro human SGLT1 inhibition assay (14C-AMG uptake); format: cell-based; set-up: key to SGLT1 (human SGLT1 IC50): ***: a value less than 0.01 μM; **: a value less than 0.1 μM; *: a value less than 1 μM; —: a value not measured or exceeding μM; details: HEK293 cells expressing human HA-SGLT1, 14C-AMG uptake
Human sodium/glucose co-transporter type 1 (SGLT1), sequence (P13866 whole entry): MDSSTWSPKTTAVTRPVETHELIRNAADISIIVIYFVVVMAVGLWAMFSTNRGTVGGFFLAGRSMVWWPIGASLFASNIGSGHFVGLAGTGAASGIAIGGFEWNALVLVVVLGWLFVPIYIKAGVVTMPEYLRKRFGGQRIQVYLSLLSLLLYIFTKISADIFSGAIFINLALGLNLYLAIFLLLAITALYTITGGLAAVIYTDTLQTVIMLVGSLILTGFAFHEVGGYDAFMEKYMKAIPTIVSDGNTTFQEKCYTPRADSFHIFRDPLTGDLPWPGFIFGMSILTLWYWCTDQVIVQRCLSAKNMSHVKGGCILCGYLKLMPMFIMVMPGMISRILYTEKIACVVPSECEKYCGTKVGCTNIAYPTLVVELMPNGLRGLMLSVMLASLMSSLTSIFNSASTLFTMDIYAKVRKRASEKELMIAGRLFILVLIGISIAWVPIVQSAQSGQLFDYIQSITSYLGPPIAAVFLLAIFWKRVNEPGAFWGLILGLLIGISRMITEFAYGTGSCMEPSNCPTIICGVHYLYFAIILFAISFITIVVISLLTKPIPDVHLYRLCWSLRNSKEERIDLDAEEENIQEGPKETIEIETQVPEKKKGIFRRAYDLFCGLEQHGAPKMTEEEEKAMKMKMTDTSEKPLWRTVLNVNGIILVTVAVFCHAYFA
Procedure, shortened: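 Uptake of 14C-AMG (100 nCi) was measured by scintillation counting after 1–2 h at 37 °C, 5% CO2, with or without compound. The buffer was pH 7.3 with 140 mM NaCl, 1 mM CaCl2, 1 mM MgCl2 and 1 mg/mL BSA. Cells were a stable HEK293 line carrying HA-SGLT1 (human), plated overnight at 30,000 per well.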

Human sodium/glucose co-transporter type 2 (SGLT2), sequence (P31639 whole entry): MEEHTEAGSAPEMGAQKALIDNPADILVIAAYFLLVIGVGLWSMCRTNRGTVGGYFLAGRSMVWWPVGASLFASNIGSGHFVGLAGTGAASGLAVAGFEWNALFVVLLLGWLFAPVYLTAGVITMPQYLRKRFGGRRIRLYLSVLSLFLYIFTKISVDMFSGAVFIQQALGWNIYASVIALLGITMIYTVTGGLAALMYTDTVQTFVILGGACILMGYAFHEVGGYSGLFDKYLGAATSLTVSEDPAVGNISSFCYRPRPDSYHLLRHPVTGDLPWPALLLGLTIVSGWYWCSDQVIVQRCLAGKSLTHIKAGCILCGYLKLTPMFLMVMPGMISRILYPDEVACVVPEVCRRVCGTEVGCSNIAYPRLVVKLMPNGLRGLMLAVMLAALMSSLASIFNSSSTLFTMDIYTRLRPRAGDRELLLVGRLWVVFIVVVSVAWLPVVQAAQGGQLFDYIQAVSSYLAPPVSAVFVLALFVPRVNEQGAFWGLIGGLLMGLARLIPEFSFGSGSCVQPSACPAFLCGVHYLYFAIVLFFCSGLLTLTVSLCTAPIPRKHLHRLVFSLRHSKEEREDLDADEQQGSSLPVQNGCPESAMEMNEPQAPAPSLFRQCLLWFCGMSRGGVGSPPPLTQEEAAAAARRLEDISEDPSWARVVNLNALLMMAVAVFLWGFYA

Row | IC50 [1] | IC50 [2] | SGLT1 (human SGLT1 IC50) [2] | SMILES
1 | < 10 nM | < 100 nM |  | CS[C@H]1O[C@@H](c2ccc(C)c(Cc3ccc(CCCCCN(C[C@H](O)CO)C[C@H](O)CO)cc3)c2)[C@H](O)[C@@H](O)[C@@H]1O [(2S,3R,4R,5S,6R)-2-(3-(4-(5-(bis((S)-2,3-dihydroxypropyl)amino)pentyl)benzyl)-4-methylphenyl)-6-(methylthio)tetrahydro-2H-pyran-3,4,5-triol]
2 | < 10 nM | < 10 nM |  | CS[C@H]1O[C@@H](c2ccc(C)c(Cc3ccc(CCCC(=O)NCCCC[C@H](N)C(=O)O)cc3)c2)[C@H](O)[C@@H](O)[C@@H]1O [(S)-2-amino-6-(4-(4-(2-methyl-5-((2S,3R,4R,5S,6R)-3,4,5-trihydroxy-6-(methylthio)tetrahydro-2H-pyran-2-yl)benzyl)phenyl)butanamido)hexanoic acid]
3 | < 10 nM | < 10 nM |  | CS[C@H]1OC(c2ccc(C)c(Cc3ccc(CCCCCl)cc3)c2)[C@H](O)[C@@H](O)[C@@H]1O (stereo partly drawn) [(3R,4R,5S,6R)-2-(3-(4-(4-chlorobutyl)benzyl)-4-methylphenyl)-6-(methylthio)tetrahydro-2H-pyran-3,4,5-triol]
4 | < 10 nM | < 10 nM |  | CS[C@H]1O[C@@H](c2ccc(C)c(Cc3ccc(CCCCC(=O)NC(C)(C)C(=O)N4CCN(C)CC4)cc3)c2)[C@H](O)[C@@H](O)[C@@H]1O [N-(2-methyl-1-(4-methylpiperazin-1-yl)-1-oxopropan-2-yl)-5-(4-(2-methyl-5-((2S,3R,4R,5S,6R)-3,4,5-trihydroxy-6-(methylthio)tetrahydro-2H-pyran-2-yl)benzyl)phenyl)pentanamide]
5 | < 10 nM | < 100 nM |  | CS[C@H]1O[C@@H](c2ccc(Cl)c(Cc3ccc(OCCNC4CCNCC4)cc3)c2)[C@H](O)[C@@H](O)[C@@H]1O [(2S,3R,4R,5S,6R)-2-(4-chloro-3-(4-(2-(piperidin-4-ylamino)ethoxy)benzyl)phenyl)-6-(methylthio)tetrahydro-2H-pyran-3,4,5-triol]
6 | < 10 nM | < 100 nM |  | CS[C@H]1O[C@@H](c2ccc(C)c(Cc3ccc(OCCCC(=O)N[C@@H](CO)C(N)=O)cc3)c2)[C@H](O)[C@@H](O)[C@@H]1O [N-((S)-1-amino-3-hydroxy-1-oxopropan-2-yl)-4-(4-(2-methyl-5-((2S,3R,4R,5S,6R)-3,4,5-trihydroxy-6-(methylthio)tetrahydro-2H-pyran-2-yl)benzyl)phenoxy)butanamide]
7 | < 10 nM | < 10 nM |  | CS[C@H]1O[C@@H](c2ccc(C)c(Cc3ccc(CCCC(=O)NCC(C)(C)C(=O)N4CCN(C)CC4)cc3)c2)[C@H](O)[C@@H](O)[C@@H]1O [N-(2,2-dimethyl-3-(4-methylpiperazin-1-yl)-3-oxopropyl)-4-(4-(2-methyl-5-((2S,3R,4R,5S,6R)-3,4,5-trihydroxy-6-(methylthio)tetrahydro-2H-pyran-2-yl)benzyl)phenyl)butanamide]
8 | < 10 nM | < 10 nM |  | CS[C@H]1O[C@@H](c2ccc(C)c(Cc3ccc(/C=C/CCC(=O)NC(C)(C)C(=O)N4CCN(C)CC4)cc3)c2)[C@H](O)[C@@H](O)[C@@H]1O [(E)-N-(2-methyl-1-(4-methylpiperazin-1-yl)-1-oxopropan-2-yl)-5-(4-(2-methyl-5-((2S,3R,4R,5S,6R)-3,4,5-trihydroxy-6-(methylthio)tetrahydro-2H-pyran-2-yl)benzyl)phenyl)pent-4-enamide]
9 | < 10 nM | < 100 nM |  | CS[C@H]1O[C@@H](c2ccc(Cl)c(Cc3ccc(OCC(=O)NCCCC[C@H](N)C(=O)O)cc3)c2)[C@H](O)[C@@H](O)[C@@H]1O [(S)-2-amino-6-(2-(4-(2-chloro-5-((2S,3R,4R,5S,6R)-3,4,5-trihydroxy-6-(methylthio)tetrahydro-2H-pyran-2-yl)benzyl)phenoxy)acetamido)hexanoic acid]
10 | < 10 nM | < 100 nM |  | CS[C@H]1O[C@@H](c2ccc(C)c(Cc3ccc(/C=C/C(=O)N4CCN(C)CC4)cc3)c2)[C@H](O)[C@@H](O)[C@@H]1O [(E)-3-(4-(2-methyl-5-((2S,3R,4R,5S,6R)-3,4,5-trihydroxy-6-(methylthio)tetrahydro-2H-pyran-2-yl)benzyl)phenyl)-1-(4-methylpiperazin-1-yl)prop-2-en-1-one]
11 | < 10 nM | < 10 nM |  | CS[C@H]1O[C@@H](c2ccc(C)c(Cc3ccc(CCCC(=O)NC(C)(C)C(=O)N4CCC(NC(=O)OC(C)(C)C)CC4)cc3)c2)[C@H](O)[C@@H](O)[C@@H]1O [tert-butyl (1-(2-methyl-2-(4-(4-(2-methyl-5-((2S,3R,4R,5S,6R)-3,4,5-trihydroxy-6-(methylthio)tetrahydro-2H-pyran-2-yl)benzyl)phenyl)butanamido)propanoyl)piperidin-4-yl)carbamate]
12 | < 10 nM | < 100 nM |  | CCOc1ccc(Cc2cc([C@@H]3O[C@H](SC)[C@@H](O)[C@H](O)[C@H]3O)ccc2C)cc1 [(2S,3R,4R,5S,6R)-2-(3-(4-ethoxybenzyl)-4-methylphenyl)-6-(methylthio)tetrahydro-2H-pyran-3,4,5-triol]
13 | < 10 nM | < 10 nM |  | CS[C@H]1O[C@@H](c2ccc(C)c(Cc3ccc(CCCC(=O)NCC(C)(C)N)cc3)c2)[C@H](O)[C@@H](O)[C@@H]1O [N-(2-amino-2-methylpropyl)-4-(4-(2-methyl-5-((2S,3R,4R,5S,6R)-3,4,5-trihydroxy-6-(methylthio)tetrahydro-2H-pyran-2-yl)benzyl)phenyl)butanamide]
14 | < 10 nM | < 100 nM |  | CS[C@H]1O[C@@H](c2ccc(C)c(Cc3ccc(CCCCCN)cc3)c2)[C@H](O)[C@@H](O)[C@@H]1O [(2S,3R,4R,5S,6R)-2-(3-(4-(5-aminopentyl)benzyl)-4-methylphenyl)-6-(methylthio)tetrahydro-2H-pyran-3,4,5-triol]

The next lines start with the compound.

Row | SMILES | IC50 [1] | IC50 [2] | SGLT1 (human SGLT1 IC50) [2]
15 | CS[C@H]1O[C@@H](c2ccc(C)c(Cc3ccc(CCCCNCC(C)(C)C(=O)N4CCN(C)CC4)cc3)c2)[C@H](O)[C@@H](O)[C@@H]1O [2,2-dimethyl-3-((4-(4-(2-methyl-5-((2S,3R,4R,5S,6R)-3,4,5-trihydroxy-6-(methylthio)tetrahydro-2H-pyran-2-yl)benzyl)phenyl)butyl)amino)-1-(4-methylpiperazin-1-yl)propan-1-one] | < 10 nM | < 10 nM | 
16 | CS[C@H]1O[C@@H](c2ccc(Cl)c(Cc3ccc(OCCN)cc3)c2)[C@H](O)[C@@H](O)[C@@H]1O [(2S,3R,4R,5S,6R)-2-(3-(4-(2-aminoethoxy)benzyl)-4-chlorophenyl-6-(methylthio)tetrahydro-2H-pyran-3,4,5-triol] | < 10 nM | < 100 nM | 
17 | CS[C@H]1O[C@@H](c2ccc(Cl)c(Cc3ccc(OCC(=O)NC(C)(C)C(=O)N4CCN(C)CC4)cc3)c2)[C@H](O)[C@@H](O)[C@@H]1O [2-(4-(2-chloro-5-((2S,3R,4R,5S,6R)-3,4,5-trihydroxy-6-(methylthio)tetrahydro-2H-pyran-2-yl)benzyl)phenoxy)-N-(2-methyl-1-(4-methylpiperazin-1-yl)-1-oxopropan-2-yl)acetamide] | < 10 nM | < 100 nM | 
18 | CS[C@H]1O[C@@H](c2ccc(C)c(Cc3ccc(CCCC#N)cc3)c2)[C@H](O)[C@@H](O)[C@@H]1O [4-(4-(2-methyl-5-((2S,3R,4R,5S,6R)-3,4,5-trihydroxy-6-(methylthio)tetrahydro-2H-pyran-2-yl)benzyl)phenyl)butanenitrile] | < 100 nM |  | —
19 | CS[C@H]1O[C@@H](c2ccc(C)c(Cc3ccc(CCCCNC(C)(C)C(=O)N4CCN(C)CC4)cc3)c2)[C@H](O)[C@@H](O)[C@@H]1O [2-methyl-2-((4-(4-(2-methyl-5-((2S,3R,4R,5S,6R)-3,4,5-trihydroxy-6-(methylthio)tetrahydro-2H-pyran-2-yl)benzyl)phenyl)butyl)amino)-1-(4-methylpiperazin-1-yl)propan-1-one] | < 10 nM | < 10 nM | 
20 | CS[C@H]1O[C@@H](c2ccc(C)c(Cc3ccc(OCCNCC(C)(C)C(N)=O)cc3)c2)[C@H](O)[C@@H](O)[C@@H]1O [2,2-dimethyl-3-((2-(4-(2-methyl-5-((2S,3R,4R,5S,6R)-3,4,5-trihydroxy-6-(methylthio)tetrahydro-2H-pyran-2-yl)benzyl)phenoxy)ethyl)amino)propanamide] | < 10 nM | < 10 nM | 
21 | CS[C@H]1O[C@@H](c2ccc(C)c(Cc3ccc(CCCC(=O)NC4(C(=O)N5CCN(C)CC5)CC4)cc3)c2)[C@H](O)[C@@H](O)[C@@H]1O [4-(4-(2-methyl-5-((2S,3R,4R,5S,6R)-3,4,5-trihydroxy-6-(methylthio)tetrahydro-2H-pyran-2-yl)benzyl)phenyl)-N-(1-(4-methylpiperazine-1-carbonyl)cyclopropyl)butanamide] | < 10 nM | < 10 nM | 
22 | CS[C@H]1O[C@@H](c2ccc(Cl)c(Cc3ccc(OCCNC(=N)N)cc3)c2)[C@H](O)[C@@H](O)[C@@H]1O [1-(2-(4-(2-chloro-5-((2S,3R,4R,5S,6R)-3,4,5-trihydroxy-6-(methylthio)tetrahydro-2H-pyran-2-yl)benzyl)phenoxy)ethyl)guanidine] | < 10 nM | < 10 nM | 
23 | CS[C@H]1O[C@@H](c2ccc(C)c(Cc3ccc(OCCNC(C)(C)CO)cc3)c2)[C@H](O)[C@@H](O)[C@@H]1O [(2S,3R,4R,5S,6R)-2-(3-(4-(2-((1-hydroxy-2-methylpropan-2-yl)amino)ethoxy)benzyl)-4-methylphenyl)-6-(methylthio)tetrahydro-2H-pyran-3,4,5-triol] | < 10 nM | < 10 nM | 
